Data: ChEMBL document CHEMBL1681699 (Bioorg Med Chem, 2011)

Tests used:
[1] = Metabolic stability in Sprague-Dawley rat brain assessed as radioactive compound remaining after 20 mins; type: ADME, tissue-based; conditions: read-out: Stability
[2] = test system: Plasma; experiment: Metabolic stability in Sprague-Dawley rat plasma assessed as 4-(1-Methyl-4-pyridin-4-yl-1H-pyrazol-3-yl)-phenol remaining after 60 mins; type: ADME, cell-free
[3] = test system: Brain; experiment: Metabolic stability in Sprague-Dawley rat brain assessed as 4-(1-Methyl-4-pyridin-4-yl-1H-pyrazol-3-yl)-phenol remaining after 2 mins; type: ADME, tissue-based
[4] = test system: Striatum; experiment: Biodistribution in Sprague-Dawley rat striatum at 3.7 x 10^3 to 5.55 x 10^3 GBq, iv after 5 mins; type: ADME, organism-based; conditions: in vivo
[5] = Metabolic stability in Sprague-Dawley rat brain assessed as radioactive compound remaining after 60 mins; type: ADME, tissue-based; conditions: read-out: Stability
[6] = Metabolic stability in Sprague-Dawley rat plasma assessed as radioactive compound remaining after 20 mins; type: ADME, cell-free; conditions: read-out: Stability
[7] = Metabolic stability in Sprague-Dawley rat plasma assessed as radioactive compound remaining after 40 mins; type: ADME, cell-free; conditions: read-out: Stability
[8] = test system: Plasma; experiment: Metabolic stability in Sprague-Dawley rat plasma assessed as 4-(1-Methyl-4-pyridin-4-yl-1H-pyrazol-3-yl)-phenol remaining retention time administered intravenously measured after 60 mins postinjection; type: ADME, organism-based; conditions: in vivo, iv
[9] = test system: Blood; experiment: Biodistribution in Sprague-Dawley rat blood at 3.7 x 10^3 to 5.55 x 10'3 GBq, iv after 30 mins; type: ADME, organism-based; conditions: in vivo, 0.5 h
[10] = test system: Heart; experiment: Biodistribution in Sprague-Dawley rat heart at 3.7 x 10^3 to 5.55 x 10'3 GBq, iv after 30 mins; type: ADME, organism-based; conditions: in vivo, 0.5 h
[11] = test system: Lung; experiment: Biodistribution in Sprague-Dawley rat lung at 3.7 x 10^3 to 5.55 x 10^3 GBq, iv after 5 mins; type: ADME, organism-based; conditions: in vivo
[12] = test system: Lung; experiment: Biodistribution in Sprague-Dawley rat lung at 3.7 x 10^3 to 5.55 x 10^3 GBq, iv after 60 mins; type: ADME, organism-based; conditions: in vivo, 1 h
[13] = test system: Liver; experiment: Biodistribution in Sprague-Dawley rat liver at 3.7 x 10^3 to 5.55 x 10^3 GBq, iv after 60 mins; type: ADME, organism-based; conditions: in vivo, 1 h
[14] = test system: Brain; experiment: Metabolic stability in Sprague-Dawley rat brain assessed as compound remaining retention time administered intravenously measured after 60 mins postinjection; type: ADME, organism-based; conditions: in vivo, iv, 1 h
[15] = test system: Kidney; experiment: Biodistribution in Sprague-Dawley rat kidney at 3.7 x 10^3 to 5.55 x 10^3 GBq, iv after 60 mins; type: ADME, organism-based; conditions: in vivo, 1 h
[16] = Metabolic stability in Sprague-Dawley rat plasma assessed as radioactive compound remaining after 60 mins; type: ADME, cell-free; conditions: read-out: Stability
[17] = Metabolic stability in Sprague-Dawley rat brain assessed as radioactive compound remaining after 2 mins; type: ADME, tissue-based; conditions: read-out: Stability
[18] = test system: Liver; experiment: Biodistribution in Sprague-Dawley rat liver at 3.7 x 10^3 to 5.55 x 10^3 GBq, iv after 5 mins; type: ADME, organism-based; conditions: in vivo
[19] = Metabolic stability in Sprague-Dawley rat plasma assessed as radioactive compound remaining after 2 mins; type: ADME, cell-free; conditions: read-out: Stability
[20] = Biodistribution in Sprague-Dawley rat hippocampus at 3.7 x 10^3 to 5.55 x 10^3 GBq, iv after 60 mins; type: ADME, organism-based; conditions: in vivo, 1 h
[21] = test system: Brain; experiment: Metabolic stability in Sprague-Dawley rat brain assessed as 4-(1-Methyl-4-pyridin-4-yl-1H-pyrazol-3-yl)-phenol remaining retention time administered intravenously measured after 60 mins postinjection; type: ADME, organism-based; conditions: in vivo, iv
[22] = test system: Testes; experiment: Biodistribution in Sprague-Dawley rat testes at 3.7 x 10^3 to 5.55 x 10^3 GBq, iv after 5 mins; type: ADME, organism-based, Testis; conditions: in vivo
[23] = test system: Cerebellum; experiment: Biodistribution in Sprague-Dawley rat cerebellum at 3.7 x 10'3 to 5.55 x 10'3 GBq, iv after 30 mins; type: ADME, organism-based; conditions: in vivo, 0.5 h
[24] = test system: Plasma; experiment: Metabolic stability in Sprague-Dawley rat plasma assessed as compound remaining retention time administered intravenously measured after 60 mins postinjection; type: ADME, organism-based; conditions: in vivo, iv, 1 h
[25] = test system: Brain; experiment: Metabolic stability in Sprague-Dawley rat brain assessed as 4-(1-Methyl-4-pyridin-4-yl-1H-pyrazol-3-yl)-phenol remaining after 60 mins; type: ADME, tissue-based
[26] = test system: Muscle tissue; experiment: Biodistribution in Sprague-Dawley rat muscle at 3.7 x 10^3 to 5.55 x 10^3 GBq, iv after 5 mins; type: ADME, organism-based; conditions: in vivo
[27] = test system: Testes; experiment: Biodistribution in Sprague-Dawley rat testes at 3.7 x 10^3 to 5.55 x 10^3 GBq, iv after 60 mins; type: ADME, organism-based, Testis; conditions: in vivo, 1 h
[28] = test system: Kidney; experiment: Biodistribution in Sprague-Dawley rat kidney at 3.7 x 10^3 to 5.55 x 10'3 GBq, iv after 30 mins; type: ADME, organism-based; conditions: in vivo, 0.5 h
[29] = test system: Plasma; experiment: Metabolic stability in Sprague-Dawley rat plasma assessed as 4-(1-Methyl-4-pyridin-4-yl-1H-pyrazol-3-yl)-phenol remaining after 20 mins; type: ADME, cell-free

remaining at 20 min [1]: 94.8%
Activity [2]: 40.72%
Activity [3]: 1.03%
Drug uptake [4]: 0.3 % ID/g
remaining at 1 h [5]: 78.6%
remaining at 20 min [6]: 74.2%
remaining at 40 min [7]: 52.6%
Time [8]: 3 min
Drug uptake [9]: 0.065 % ID/g
Drug uptake [10]: 0.102 % ID/g
Drug uptake [11]: 0.317 % ID/g
Drug uptake [12]: 0.09 % ID/g
Drug uptake [13]: 3.364 % ID/g
Time [14]: 10.5 min
Drug uptake [15]: 0.314 % ID/g
remaining at 1 h [16]: 49.3%
remaining at 2 min [17]: 98.7%
Drug uptake [18]: 2.766 % ID/g
remaining at 2 min [19]: 98.3%
Drug uptake [20]: 0.051 % ID/g
Time [21]: 10.5 min
Drug uptake [22]: 0.16 % ID/g
Drug uptake [23]: 0.036 % ID/g
Time [24]: 3 min
Activity [25]: 15.87%
Drug uptake [26]: 0.093 % ID/g
Drug uptake [27]: 0.068 % ID/g
Drug uptake [28]: 0.366 % ID/g
Activity [29]: 19.13%
Structure (SMILES): [11CH3]n1cc(-c2ccncc2)c(-c2ccc(OCc3ccc4ccccc4n3)cc2)n1
